# Test results: US12059418B2, “Plasmodial surface anion channel inhibitors for the treatment or prevention of malaria” (The United States of America, as represented by the …, priority 2011, dated 2024)
# Experiments:
# [1] = system: PSAC on Dd2-infected cells; type: cell-based, P. falciparum; conditions: Dd2 vs. HB3
# [2] = system: channels from HB3 parasites; experiment: Sorbitol uptake osmotic lysis, HB3-infected cells; type: cell-based, P. falciparum; conditions: read-out: K0.5
# Description: Inhibitor affinity for PSAC block was determined using a quantitative transmittance assay based on osmotic lysis of infected cells in sorbitol (Wagner et al., Biophys. J., 84: 116-123 (2003)). […] Other inhibitors had dose responses that are adequately fitted by a single Langmuir isotherm.
# [3] = system: PSAC; experiment: Uptake of alanine, proline and PhTMA by osmotic lysis; type: cell-based, P. falciparum
# Text: ISPA-28 effects on uptake of the amino acids alanine and proline as well as the organic cation phenyl-trimethylammonium (PhTMA), solutes with known increases in permeability after infection (Ginsburg et al., Mol. Biochem. Parasitol. 14: 313-22 (1985); Bokhari et al., J. Membr. Biol. 226: 27-34 (2008)), were also examined.
# [4] = system: PSAC; experiment: Transport inhibition in 22 different laboratory parasite lines; type: cell-based, P. falciparum
# [5] = system: PSAC activity on HB3^3rec; type: cell-based, P. falciparum; conditions: HB3^3rec before selection
# [6] = system: Dd2 parasites; experiment: In vitro parasite growth inhibition, Dd2; type: cell-based, P. falciparum
# [7] = system: HB3 parasites; experiment: In vitro parasite growth inhibition, HB3; type: cell-based, P. falciparum; conditions: Plasmodium falciparum
# [8] = system: HB3^3rec; experiment: In vitro parasite growth inhibition, HB3^3rec in PLM; type: cell-based, P. falciparum; conditions: after transport-based selection
# [9] = Inhibitor metabolism in parasite culture; type: in vitro ADME, P. falciparum; conditions: 40 μM, 37° C., 72 h in Dd2 culture
# Description: To examine possible inhibitor metabolism in parasite culture, Dd2 parasites were cultivated in standard media with 40 μM ISPA-28 at 37° C. for 72 h. After centrifugation, the culture supernatant was used as a source of ISPA-28 for comparison to freshly-prepared compound in transport inhibition studies.
# [10] = biological target: PSAC of Dd2 transfectant expressing HB3 allele for PFC0120w (clag 3.1) (Plasmodium falciparum, UniProt O77310); conditions: read-out: transfectant K0.5; PFC0120w (clag 3.1) HB3 allele in Dd2
# Chain of PSAC of Dd2 transfectant expressing HB3 allele for PFC0120w (clag 3.1) (O77310 whole entry, looked up): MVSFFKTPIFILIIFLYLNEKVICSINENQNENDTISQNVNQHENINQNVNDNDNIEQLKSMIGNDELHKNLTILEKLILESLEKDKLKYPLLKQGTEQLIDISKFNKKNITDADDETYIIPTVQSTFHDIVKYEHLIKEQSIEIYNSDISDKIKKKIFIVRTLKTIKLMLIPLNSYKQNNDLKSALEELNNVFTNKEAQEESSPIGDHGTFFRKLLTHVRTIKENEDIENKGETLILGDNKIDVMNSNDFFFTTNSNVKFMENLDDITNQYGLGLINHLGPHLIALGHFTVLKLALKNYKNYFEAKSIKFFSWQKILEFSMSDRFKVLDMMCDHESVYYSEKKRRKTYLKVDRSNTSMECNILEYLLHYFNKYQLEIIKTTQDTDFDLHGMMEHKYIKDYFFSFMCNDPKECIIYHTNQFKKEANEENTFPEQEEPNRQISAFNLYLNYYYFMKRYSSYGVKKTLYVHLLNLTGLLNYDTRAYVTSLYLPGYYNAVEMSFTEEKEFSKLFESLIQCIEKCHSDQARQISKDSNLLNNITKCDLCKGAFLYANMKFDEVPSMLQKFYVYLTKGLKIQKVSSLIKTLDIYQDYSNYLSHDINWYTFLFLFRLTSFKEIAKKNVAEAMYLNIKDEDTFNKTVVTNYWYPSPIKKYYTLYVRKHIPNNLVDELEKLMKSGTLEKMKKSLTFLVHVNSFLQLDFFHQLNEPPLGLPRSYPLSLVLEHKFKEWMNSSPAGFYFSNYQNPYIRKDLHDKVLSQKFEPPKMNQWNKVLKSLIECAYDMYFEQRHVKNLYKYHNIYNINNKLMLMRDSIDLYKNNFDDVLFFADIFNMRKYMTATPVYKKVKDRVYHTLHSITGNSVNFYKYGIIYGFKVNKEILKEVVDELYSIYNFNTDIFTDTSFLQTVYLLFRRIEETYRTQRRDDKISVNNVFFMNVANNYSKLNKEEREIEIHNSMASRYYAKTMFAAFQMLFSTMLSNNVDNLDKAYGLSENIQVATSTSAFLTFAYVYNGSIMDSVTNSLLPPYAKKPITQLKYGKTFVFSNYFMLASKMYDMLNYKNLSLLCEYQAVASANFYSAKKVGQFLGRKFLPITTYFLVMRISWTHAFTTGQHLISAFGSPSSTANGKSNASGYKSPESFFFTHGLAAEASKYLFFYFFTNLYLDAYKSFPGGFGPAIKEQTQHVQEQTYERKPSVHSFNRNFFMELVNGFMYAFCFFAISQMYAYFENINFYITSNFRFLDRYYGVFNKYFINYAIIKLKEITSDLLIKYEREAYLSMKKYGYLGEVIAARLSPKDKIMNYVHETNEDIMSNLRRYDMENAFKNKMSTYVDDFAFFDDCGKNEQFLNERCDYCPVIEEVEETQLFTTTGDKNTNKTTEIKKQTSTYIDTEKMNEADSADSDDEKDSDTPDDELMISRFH
# [11] = system: Dd2 channels; experiment: Cell-attached patch-clamp of Dd2-infected erythrocytes; conditions: 10 μM, 1.1 M Cl−
# [12] = system: HB3 channels; experiment: Cell-attached patch-clamp of HB3-infected erythrocytes; conditions: 10 μM, 1.1 M Cl−
# [13] = biological target: T1, PSAC of Dd2 transfectant expressing HB3 allele for PFC0110w (clag 3.2) (Plasmodium falciparum, UniProt O77309); experiment: Sorbitol uptake inhibition, Dd2 transfectant expressing HB3 allele of PFC0110w; conditions: read-out: transfectant K0.5; PFC0110w (clag 3.2) HB3 allele in Dd2
# T1 sequence (O77309 25-1416): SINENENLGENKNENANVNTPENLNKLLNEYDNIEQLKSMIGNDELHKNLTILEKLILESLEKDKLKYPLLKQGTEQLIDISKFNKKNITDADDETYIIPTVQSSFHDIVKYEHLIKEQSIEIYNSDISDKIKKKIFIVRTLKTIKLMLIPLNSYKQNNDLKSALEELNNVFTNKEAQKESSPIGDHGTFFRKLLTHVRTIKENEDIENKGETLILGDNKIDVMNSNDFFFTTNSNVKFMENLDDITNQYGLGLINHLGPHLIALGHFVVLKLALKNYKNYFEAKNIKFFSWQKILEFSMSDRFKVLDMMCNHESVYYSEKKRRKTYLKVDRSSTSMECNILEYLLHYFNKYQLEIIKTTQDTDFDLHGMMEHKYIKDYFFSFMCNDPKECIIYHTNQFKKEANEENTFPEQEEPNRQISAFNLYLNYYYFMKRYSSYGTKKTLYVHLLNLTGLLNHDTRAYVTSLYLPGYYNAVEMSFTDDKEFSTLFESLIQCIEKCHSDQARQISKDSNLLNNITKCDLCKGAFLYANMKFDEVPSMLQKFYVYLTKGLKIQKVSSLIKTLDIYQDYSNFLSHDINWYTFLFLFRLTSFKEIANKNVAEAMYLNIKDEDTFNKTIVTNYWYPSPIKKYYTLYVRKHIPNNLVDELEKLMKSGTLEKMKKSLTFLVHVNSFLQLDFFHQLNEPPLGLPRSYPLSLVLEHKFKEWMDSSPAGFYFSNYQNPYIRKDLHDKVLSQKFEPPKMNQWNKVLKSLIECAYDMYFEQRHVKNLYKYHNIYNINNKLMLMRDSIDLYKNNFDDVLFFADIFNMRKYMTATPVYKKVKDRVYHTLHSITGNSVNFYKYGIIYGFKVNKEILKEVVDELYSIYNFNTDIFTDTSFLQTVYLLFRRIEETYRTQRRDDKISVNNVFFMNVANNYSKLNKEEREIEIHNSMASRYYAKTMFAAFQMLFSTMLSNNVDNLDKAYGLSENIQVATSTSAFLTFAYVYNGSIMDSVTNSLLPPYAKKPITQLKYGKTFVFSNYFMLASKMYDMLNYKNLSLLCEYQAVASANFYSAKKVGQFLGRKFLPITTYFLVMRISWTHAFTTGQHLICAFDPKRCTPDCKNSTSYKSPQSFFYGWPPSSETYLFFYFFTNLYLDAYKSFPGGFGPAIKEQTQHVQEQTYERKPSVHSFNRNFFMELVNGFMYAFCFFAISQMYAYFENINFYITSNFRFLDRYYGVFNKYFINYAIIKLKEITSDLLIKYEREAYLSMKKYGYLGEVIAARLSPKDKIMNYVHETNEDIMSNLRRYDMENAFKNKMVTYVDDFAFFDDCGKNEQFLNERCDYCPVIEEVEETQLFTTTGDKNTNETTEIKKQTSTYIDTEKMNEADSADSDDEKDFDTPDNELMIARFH
# [14] = biological target: channels associated with clag3.1 gene from Dd2 (Plasmodium falciparum, UniProt O77310); experiment: PSAC inhibition, 7C20 channels associated with clag3.1; type: cell-based, P. falciparum; conditions: clag3.1 from Dd2; read-out: K0.5
# Chain of channels associated with clag3.1 gene from Dd2 (O77310 whole entry, looked up): as the sequence (O77310 whole entry, looked up) above
# Description: (§1) A PSAC inhibitor with reversed specificity for the two Dd2 clag3 products was next sought. To this end, hits from the high-throughput screen of Example 2 were surveyed using the progeny clone 7C20 before and after selection for clag3.1 expression. This secondary screen identified ISPA-43 as a PSAC inhibitor with an allele specificity opposite that of ISPA-28 (Formula B below (K0.5 of 32 and 3.9 μM for channels associated with clag3.1 and clag3.2 genes from Dd2, respectively).
# [15] = biological target: T2, channels associated with clag3.2 gene from Dd2 (Plasmodium falciparum, UniProt A0A1W6IZK1); experiment: PSAC inhibition, 7C20 channels associated with clag3.2; type: cell-based, P. falciparum; conditions: read-out: K0.5; clag3.2 from Dd2
# T2 construct: rows headed: K0.5; other: clag3.2 from Dd2
# T2 sequence (A0A1W6IZK1 whole entry, looked up): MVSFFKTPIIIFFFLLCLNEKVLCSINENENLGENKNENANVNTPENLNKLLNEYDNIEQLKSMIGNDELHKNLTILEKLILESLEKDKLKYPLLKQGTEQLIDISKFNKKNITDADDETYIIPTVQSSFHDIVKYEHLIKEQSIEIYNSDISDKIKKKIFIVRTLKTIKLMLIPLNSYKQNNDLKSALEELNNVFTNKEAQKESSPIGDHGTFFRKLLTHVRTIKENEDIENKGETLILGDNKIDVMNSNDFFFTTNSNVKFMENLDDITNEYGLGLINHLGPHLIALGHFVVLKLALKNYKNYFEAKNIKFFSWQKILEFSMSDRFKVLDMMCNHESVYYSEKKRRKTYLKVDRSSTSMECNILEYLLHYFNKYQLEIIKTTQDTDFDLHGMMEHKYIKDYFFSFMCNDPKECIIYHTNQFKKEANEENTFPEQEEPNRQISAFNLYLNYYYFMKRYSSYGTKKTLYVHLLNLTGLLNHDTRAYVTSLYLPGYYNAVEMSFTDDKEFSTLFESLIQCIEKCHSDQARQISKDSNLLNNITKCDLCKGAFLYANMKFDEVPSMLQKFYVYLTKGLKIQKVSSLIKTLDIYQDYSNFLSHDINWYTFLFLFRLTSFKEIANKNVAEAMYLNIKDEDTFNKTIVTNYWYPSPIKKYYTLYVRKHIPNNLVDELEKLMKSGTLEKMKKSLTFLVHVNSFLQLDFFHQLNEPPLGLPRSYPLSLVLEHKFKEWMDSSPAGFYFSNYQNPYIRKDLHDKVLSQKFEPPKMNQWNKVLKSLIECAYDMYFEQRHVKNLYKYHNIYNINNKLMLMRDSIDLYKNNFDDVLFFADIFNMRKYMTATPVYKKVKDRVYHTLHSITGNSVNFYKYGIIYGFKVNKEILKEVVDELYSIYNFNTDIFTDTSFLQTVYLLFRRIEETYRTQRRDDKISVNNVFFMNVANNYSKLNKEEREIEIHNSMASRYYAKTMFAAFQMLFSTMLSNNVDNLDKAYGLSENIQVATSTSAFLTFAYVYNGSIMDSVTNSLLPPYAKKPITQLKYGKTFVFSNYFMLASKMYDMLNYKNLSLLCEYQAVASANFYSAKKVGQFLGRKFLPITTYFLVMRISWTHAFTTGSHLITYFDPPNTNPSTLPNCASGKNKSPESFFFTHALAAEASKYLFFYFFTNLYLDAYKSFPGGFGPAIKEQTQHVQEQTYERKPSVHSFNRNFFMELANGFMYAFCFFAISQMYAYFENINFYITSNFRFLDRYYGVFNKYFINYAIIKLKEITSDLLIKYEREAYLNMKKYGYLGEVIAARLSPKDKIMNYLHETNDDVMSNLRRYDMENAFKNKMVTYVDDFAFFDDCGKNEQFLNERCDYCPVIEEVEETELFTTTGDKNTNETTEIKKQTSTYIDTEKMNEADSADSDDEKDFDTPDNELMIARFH
# Description: as §1
# [16] = system: channels associated with clag3.2 gene from Dd2; experiment: as above; type: cell-based, P. falciparum
# Description: as §1
Compound,difference in half-maximal affinities [1],IC50 [2],"effects on uptake of alanine, proline and phenyl-trimethylammonium (PhTMA) [3]",transport inhibition in 22 laboratory parasite lines [4],channel's ISPA-28 affinity [5],"IC50 ([6]; Plasmodium falciparum, DD2, PLM)","IC50 ([6]; Plasmodium falciparum, DD2, RPMI-based media)",IC50 ([6]; RPMI-based media),"IC50 ([7]; HB3, PLM)","IC50 ([7]; HB3, RPMI-based media)",growth inhibition sensitivity [8],efficacy after metabolism under in vitro culture conditions [9],IC50 [10],single PSAC channel inhibition [11],single PSAC channel inhibition [12],IC50 [13],IC50 [14],IC50 [15],higher affinity for channels formed by Dd2 clag3.2 than clag3.1 [16]
CCn1cc(C2=NOC(C(=O)Nc3c(C)n(C)n(-c4ccccc4)c3=O)C2)c(C)n1 (stereo not shown) [ISPA-28],~800 fold,43 ± 2 µM,inhibited with dose responses matching those for sorbitol,significant transport inhibition was found with only Dd2 and W2,intermediate between those of HB3 and Dd2,0.66 ± 0.2 µM,> 40 µM,~50 µM,52 ± 19 µM,> 40 µM,sensitive to ISPA-28 at levels matching Dd2,not compromised by metabolism,0.14 ± 0.012 µM,near-fully inhibited,largely unaffected,0.095 ± 0.008 µM,,,
CCC(CC)C(=O)Nc1ncc2c(n1)CC(c1ccc(OC)c(OC)c1)CC2=O (stereo not shown) [ISPA-43],,,,,,,,,,,,,,,,,32 µM,3.9 µM,10 fold
